Results: publication PMC8744835, “Sterically Hindered Quaternary Phosphonium Salts (QPSs): Antimicrobial Activity and Hemolytic and Cytotoxic Properties” (International Journal of Molecular Sciences, 2021)

Tests used:
P. aeruginosa = assay: Zone-of-inhibition test of coated PC+ plastic sample; type: cell-based, Pseudomonas aeruginosa; conditions: PC+ sample immersed 1 min in 1% solution of 12a in ethanol, 37 °C 24 h
Experimental: (§1) The inhibition-zone test is a quick and qualitative way to measure the ability of an antimicrobial agent to suppress microbial growth. The sensitivity of the method is quite high and even a small amount of residual biocide in a model system can be detected. […] In this experiment, we used cultures of the bacteria P. aeruginosa and S. aureus. First, the microbial suspension was spread on a sterile agar plate. Then, a plastic sample (PC+), which was preliminarily immersed for 1 min in a 1% solution of compound 12a in ethanol, was placed in the center of the Petri dish with agar. During the incubation period, the inoculum bacteria can only grow where is no antimicrobial agent. If the active agent is washed out of the sample into the environment (in this case, agar), bacterial growth in the area around the sample is suppressed. The width of this area is determined by the diffusion of the active compound in the vicinity. […] From the results obtained, it is clear that a relatively stable surface coating was achieved using a simple experimental procedure.
(§2) This sample was tested for possible release of the active compound. Tests were performed on a culture of Gram-negative bacteria P. aeruginosa and Gram-positive bacteria S. aureus. […] Then, Petri dishes were placed in an incubator at 37 °C for 24 h, and the presence of inhibition zones was evaluated.

[1] = test system: Enterococcus faecalis ATCC 2921; assay: Antimicrobial activity, serial dilution technique in Mueller–Hinton Broth 2; type: cell-based; conditions: Ef; average of three ± SD; - means non-active
In short: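 Antibacterial activity against Enterococcus faecalis ATCC 2921 was assessed by serial dilution in Mueller–Hinton Broth 2 with a bacterial load of 3.0 × 10^5 cfu/mL. Cultures were incubated at 37 °C, with growth recorded every 24 h for 5 days, and the experiment was performed three times.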

[2] = test system: Escherichia coli ATCC 25922; assay: as above; type: cell-based; conditions: Escherichia coli, ATCC25922, Ec; average of three ± SD; - means non-active; read-out: Minimum Inhibitory Concentration (MIC), Ec
In short: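 Compounds were serially diluted in Mueller–Hinton Broth 2 and inoculated at 3.0 × 10^5 cfu/mL. Cultures were then incubated at 37 °C with growth recorded daily for 5 days. The MIC was taken as the minimum concentration inhibiting growth, from three experiments.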

[3] = test system: Bacillus cereus ATCC 10702 NCTC 8035; assay: as above; type: cell-based; conditions: Bacillus cereus, Bc, average of three ± SD, - means non-active
In short: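 Antibacterial activity against Bacillus cereus ATCC 10702 NCTC 8035 was measured by serial dilution in Mueller–Hinton Broth 2 at a bacterial load of 3.0 × 10^5 cfu/mL. Cultures were kept at 37 °C and growth was read every 24 h for 5 days. The experiment was done three times, and MIC and bactericidal concentrations were determined.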

[4] = test system: Staphylococcus aureus ATCC 6538P FDA 209P; assay: as above; type: cell-based; conditions: Staphylococcus aureus, Sa, average of three ± SD, - means non-active
In short: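 Antimicrobial activity against Staphylococcus aureus ATCC 6538P FDA 209P was measured by serial dilution in Mueller–Hinton Broth 2 at a bacterial load of 3.0 × 10^5 cfu/mL. Cultures were incubated at 37 °C, growth was recorded every 24 h for 5 days, and the experiment was done three times.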

[5] = test system: Pseudomonas aeruginosa ATCC 9027; assay: as above; type: cell-based; conditions: Pseudomonas aeruginosa, ATCC9027, Pa, average of three ± SD, - means non-active
[6] = test system: methicillin-resistant S. aureus MRSA-2; assay: as above; type: cell-based, Staphylococcus aureus; conditions: - means non-active
In short: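 Antimicrobial activity against methicillin-susceptible Staphylococcus aureus MRSA-2, a beta-lactam-resistant clinical isolate from a sinusitis patient at the Republican Clinical Hospital (Kazan), was assessed by serial dilution in Mueller–Hinton Broth 2. The inoculum was 3.0 × 10^5 cfu/mL. Cultures were incubated at 37 °C and read every 24 h for 5 days, in three repeat experiments.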

[7] = test system: methicillin-resistant S. aureus MRSA-1; assay: as above; type: cell-based, Staphylococcus aureus; conditions: - means non-active
In short: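 Antimicrobial activity against methicillin-susceptible Staphylococcus aureus MRSA-1, a hospital isolate from a chronic tonsillitis patient that is resistant to fluoroquinolones and beta-lactams, was determined by serial dilution in Mueller–Hinton Broth 2. The bacterial load was 3.0 × 10^5 cfu/mL, incubation was at 37 °C, and growth was recorded every 24 h for 5 days.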

[8] = test system: Candida albicans ATCC 10231; assay: Fungicidal activity, serial dilution technique; type: cell-based; conditions: average of three ± SD, - means non-active
In short: (§3)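 Inoculum 3.0 × 10^5 cfu/mL; serial dilution, MH Broth 2; 37 °C; read q24 h × 5 d; MIC = lowest inhibitory conc.; n = 3.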

[9] = test system: Trichophyton mentagrophytes var. gypseum 1773; assay: Fungicidal activity, serial dilution technique; type: cell-based; conditions: Tm; average of three ± SD; - means non-active
In short: as §3

[10] = test system: Escherichia coli ATCC 25922; assay: Antimicrobial activity, serial dilution technique in Mueller–Hinton Broth 2; type: cell-based; conditions: Escherichia coli, ATCC25922, Ec; average of three ± SD; - means non-active; read-out: Minimum Bactericidal and Fungicidal Concentration (MBC, MFC), Ec
S. aureus = assay: Zone-of-inhibition test of coated PC+ plastic sample; type: cell-based, Staphylococcus aureus; conditions: PC+ sample immersed 1 min in 1% solution of 12a in ethanol, 37 °C 24 h
Experimental: as §1, §2

CCCCCCCCCCCC[P+](C(C)(C)C)(C(C)(C)C)C(C)(C)C [Compound 12a, tri-tert-butyl(n-dodecyl)phosphonium]
zone of inhibition (P. aeruginosa): no zones of inhibition
Minimum Bactericidal and Fungicidal Concentration (MBC, MFC), Ef [1]: 1.9 ± 0.1 µg/mL
Minimum Inhibitory Concentration (MIC), Ef [1]: 0.9 ± 0.06 µg/mL
MIC [2]: 7.8 ± 0.6 µg/mL
MBC ([3]; read-out: Minimum Bactericidal and Fungicidal Concentration (MBC, MFC), Bc): 62.5 ± 5.3 µg/mL
MIC ([3]; read-out: Minimum Inhibitory Concentration (MIC), Bc): 1.9 ± 0.01 µg/mL
MBC ([4]; read-out: Minimum Bactericidal and Fungicidal Concentration (MBC, MFC), Sa): 0.5 ± 0.03 µg/mL
MIC ([4]; read-out: Minimum Inhibitory Concentration (MIC), Sa): 0.5 ± 0.03 µg/mL
MBC ([5]; read-out: Minimum Bactericidal and Fungicidal Concentration (MBC, MFC), Pa): 125 ± 11 µg/mL
MIC ([5]; read-out: Minimum Inhibitory Concentration (MIC), Pa): 62.5 ± 5.5 µg/mL
Minimum Bactericidal and Fungicidal Concentration (MBC, MFC), MRSA-2 ([6]; MRSA-2): 7.8 ± 0.6 µg/mL
MIC ([6]; Staphylococcus aureus, MRSA, MRSA-2 (resistant to beta-lactams), read-out: Minimum Inhibitory Concentration (MIC), MRSA-2): 0.5 ± 0.03 µg/mL
Minimum Inhibitory Concentration (MIC), MRSA-1 ([7]; MRSA-1 (resistant to fluoroquinolones and beta-lactams)): 0.5 ± 0.03 µg/mL
MBC ([7]; Staphylococcus aureus, MRSA, MRSA-1, read-out: Minimum Bactericidal and Fungicidal Concentration (MBC, MFC), MRSA-1): 0.5 ± 0.04 µg/mL
Minimum Bactericidal and Fungicidal Concentration (MBC, MFC), Ca ([8]; Ca): 31.3 ± 2.7 µg/mL
MIC ([8]; Candida albicans, ATCC10231, Ca, read-out: Minimum Inhibitory Concentration (MIC), Ca): 15.6 ± 1.4 µg/mL
Minimum Bactericidal and Fungicidal Concentration (MBC, MFC), Tm [9]: 15.6 ± 1.3 µg/mL
Minimum Inhibitory Concentration (MIC), Tm [9]: 15.6 ± 1.2 µg/mL
MBC [10]: 7.8 ± 0.7 µg/mL
zone of inhibition (S. aureus): no zones of inhibition
